In general, melting point refers to the temperature, or range, at which the solid turns liquid. Usually IC50 stands for the concentration that inhibits the measured activity by half. High values mean weaker potency in that assay, low ones greater potency in that assay.

Series [1] addresses T1, α-amylase from Aspergillus oryzae (Aspergillus oryzae, UniProt P0C1B3).
T1 construct: purchased Sigma Aldrich
Kind of series: biochemical. The settings on record: for α-Amylase Selectivity: IC50 (α-glucosidase)/IC50 (α-amylase). The method, then: Briefly, 250 μL (0.4 mg/mL) of sample was preincubated with 250 μL of α-amylase solution for 10 min at 25 °C in one set of tubes. In another set of tubes α-amylase was preincubated with 250 μL of phosphate buffer (pH 6.9). 250 μL of starch solution at increasing concentrations (0.2–1% (w/v)) was added to both sets of reaction mixtures to start the reaction. The mixture was then incubated for 10 min at 25 °C and then boiled for 15 min after the addition of 250 μL of DNS to stop the reaction. The amount of reducing sugars released was determined spectrophotometrically using a maltose standard curve and converted to reaction velocities.
(§1) The inhibitory concentration 50% (IC50) values were determined from the plots of percent inhibition versus log inhibitor concentration and calculated by logarithmic regression analysis from the mean inhibitory values.

Series [2] concerns the target T2, α-Glucosidase type 1 from baker’s yeast (Saccharomyces cerevisiae, UniProt P53341).
T2 construct: purchased Sigma-Aldrich G5003
Kind of series: α-Glucosidase inhibition assay (p-nitrophenyl α-D-glucopyranoside, 405 nm). The series is classed as biochemical. The settings on record: for α-Glucosidase Selectivity: IC50 (α-amylase)/IC50 (α-glucosidase). Here is the method:
Sodium phosphate buffer (0.1 M) was adjusted by 0.1 N HCl to pH 7.0 with a pH meter (Thermo Fisher Scientific Inc., Waltham, MA, USA). p-Nitrophenyl α-D-glucopyranoside (10 mM) and α-glucosidase solutions (1 U/mL) were solubilized in 0.1 M sodium phosphate buffer (pH 7.0). All the reagents were manufactured shortly before use and warmed to 37 °C in a water bath. Sodium phosphate buffer (0.1 M, 158 μL per well) was added to a 96-well plate. α-Glucosidase (20 μL) and 2 μL of sample were added to 20 μL of p-nitrophenyl α-D-glucopyranoside. In the 200-μL final reaction volume (0.02 U/well, 0.1 U/mL) the substrate concentration was adjusted to […]. The background signal due to the sample color was measured at 405 nm with the PerkinElmer Wallac Victor3 spectrophotometer (PerkinElmer, Waltham, MA, USA) prior to adding the enzyme. Immediately following α-glucosidase addition, absorbance was measured at 405 nm 8 times at 1 min intervals.
as §1

T2 sequence (P53341 whole entry): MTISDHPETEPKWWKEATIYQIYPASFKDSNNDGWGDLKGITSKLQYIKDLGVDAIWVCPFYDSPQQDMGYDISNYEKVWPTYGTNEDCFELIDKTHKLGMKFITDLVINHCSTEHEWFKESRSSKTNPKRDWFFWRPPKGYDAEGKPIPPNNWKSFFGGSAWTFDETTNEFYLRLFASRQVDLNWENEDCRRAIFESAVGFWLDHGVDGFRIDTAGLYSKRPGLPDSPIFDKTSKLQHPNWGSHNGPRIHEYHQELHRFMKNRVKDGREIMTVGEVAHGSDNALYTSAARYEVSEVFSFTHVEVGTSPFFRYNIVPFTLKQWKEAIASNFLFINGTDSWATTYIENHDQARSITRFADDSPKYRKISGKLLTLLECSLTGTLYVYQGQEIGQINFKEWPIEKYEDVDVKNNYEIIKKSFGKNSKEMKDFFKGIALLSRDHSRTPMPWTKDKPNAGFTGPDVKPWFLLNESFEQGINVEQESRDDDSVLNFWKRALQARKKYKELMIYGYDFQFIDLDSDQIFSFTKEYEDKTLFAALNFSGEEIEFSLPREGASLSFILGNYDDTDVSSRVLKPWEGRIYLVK

`O=C(c1ccccc1)C1C(c2cc3ccccc3o2)C2CSCN2[C@@]12C(=O)Nc1ccc(Cl)cc12` (stereo partly drawn) [Compound 5a, (3S)-7′-(Benzofuran-2-yl)-6′-benzoyl-5-chloro-1′,6′,7′,7a′-tetrahydro-3′H-spiro[indoline-3,5′-pyrrolo[1,2-c]thiazol]-2-one]: the melting point is 132 to 133 °C. In series [1], it took 693.22 ± 0.1 µM to reach half-maximal inhibition (IC50) and the “α-Amylase Selectivity” value is 0.67. Besides, in series [2], the IC50 was 465.12 ± 0.12 µM and the “α-Glucosidase Selectivity” value is reported as 1.49.
Regarding `O=C(c1ccccc1)C1C(c2cc3ccccc3o2)C2C3CCCCC3CN2[C@@]12C(=O)Nc1ccc(Cl)cc12` (stereo partly drawn) [Compound 5b, (3S)-1′-(Benzofuran-2-yl)-2′-benzoyl-5-chloro-1′,2′,5′,5a′,6′,7′,8′,9′,9a′,9b′-decahydrospiro[indoline-3,3′-pyrrolo[2,1-a]isoindol]-2-one], the melting point fell in the range of 120 to 122 °C.
In the case of `O=C(c1ccc(F)cc1)C1C(c2cc3ccccc3o2)C2CSCN2[C@@]12C(=O)Nc1ccc(Cl)cc12` (stereo partly drawn) [Compound 5c, (3S)-7′-(Benzofuran-2-yl)-5-chloro-6′-(4-fluorobenzoyl)-1′,6′,7′,7a′-tetrahydro-3′H-spiro[indoline-3,5′-pyrrolo[1,2-c]thiazol]-2-one], the melting point lay within 110 to 112 °C. In series [1], the IC50 was 718 ± 0.27 µM and the “α-Amylase Selectivity” value was 0.81. Moreover, in series [2], the IC50 amounted to 585.11 ± 0.02 µM and the “α-Glucosidase Selectivity” value turned out to be 1.22.
The compound `O=C(c1ccc(F)cc1)C1C(c2cc3ccccc3o2)C2C3CCCCC3CN2[C@@]12C(=O)Nc1ccc(Cl)cc12` (stereo partly drawn) [Compound 5d, (3S)-1′-(benzofuran-2-yl)-5-chloro-2′-(4-fluorobenzoyl)-1′,2′,5′,5a′,6′,7′,8′,9′,9a′,9b′-decahydrospiro-[indoline-3,3′-pyrrolo[2,1-a]isoindol]-2-one] yielded a melting point of 125 to 127 °C.
Consider `O=C(c1ccc(F)cc1)C1C(c2cc3ccccc3o2)C2C3CCCCC3CN2[C@@]12C(=O)Nc1ccc(Br)cc12` (stereo partly drawn) [Compound 5e, (3S)-1′-(Benzofuran-2-yl)-5-bromo-2′-(4-fluorobenzoyl)-1′,2′,5′,5a′,6′,7′,8′,9′,9a′,9b′-decahydrospiro-[indoline-3,3′-pyrrolo[2,1-a]isoindol]-2-one], for which the melting point was in the range of 125 to 127 °C.
Turning to `O=C(c1ccc(Br)cc1)C1C(c2cc3ccccc3o2)C2C3CCCCC3CN2[C@@]12C(=O)Nc1ccc(Cl)cc12` (stereo partly drawn) [Compound 5f, (3S)-1′-(Benzofuran-2-yl)-2′-(4-bromobenzoyl)-5-chloro-1′,2′,5′,5a′,6′,7′,8′,9′,9a′,9b′-decahydrospiro-[indoline-3,3′-pyrrolo[2,1-a]isoindol]-2-one], the melting point was 120 to 121 °C.
Consider `O=C(c1ccc(Br)cc1)C1C(c2cc3ccccc3o2)C2CSCN2[C@@]12C(=O)Nc1ccc(Br)cc12` (stereo partly drawn) [Compound 5h, (3S)-7′-(Benzofuran-2-yl)-5-bromo-6′-(4-bromobenzoyl)-1′,6′,7′,7a′-tetrahydro-3′H-spiro[indoline-3,5′-pyrrolo[1,2-c]thiazol]-2-one], for which the melting point is 118 to 120 °C. For the same compound, in series [1], 589.04 ± 0.25 µM corresponded to half-maximal inhibition (IC50) and the “α-Amylase Selectivity” value stood at 0.83. Moreover, in series [2], inhibition was half-maximal at 494.1 ± 0.04 µM (IC50) and the “α-Glucosidase Selectivity” value was 1.19.
For `O=C(c1ccc(Br)cc1)C1C(c2cc3ccccc3o2)C2CSCN2[C@@]12C(=O)Nc1ccc(Cl)cc12` (stereo partly drawn) [Compound 5i, (3S)-7′-(Benzofuran-2-yl)-6′-(4-bromobenzoyl)-5-chloro-1′,6′,7′,7a′-tetrahydro-3′H-spiro[indoline-3,5′-pyrrolo[1,2-c]thiazol]-2-one], the melting point lay within 144 to 145 °C. Further, in series [1], 779.08 ± 0.51 µM corresponded to half-maximal inhibition (IC50) and the “α-Amylase Selectivity” value is reported as 0.87. Further, in series [2], the IC50 came out at 684.12 ± 0.35 µM and the “α-Glucosidase Selectivity” value came to 1.13.
Regarding `O=C(c1ccc(C(F)(F)F)cc1)C1C(c2cc3ccccc3o2)C2CSCN2[C@@]12C(=O)Nc1ccc(Cl)cc12` (stereo partly drawn) [Compound 5l, (3S)-7′-(Benzofuran-2-yl)-5-chloro-6′-(4-(trifluoromethyl)benzoyl)-1′,6′,7′,7a′-tetrahydro-3′H-spiro-[indoline-3,5′-pyrrolo[1,2-c]thiazol]-2-one], the melting point lay in the range of 110 to 112 °C. In series [1], half-maximal inhibition (IC50) was put at 558.07 ± 0.18 µM and the “α-Amylase Selectivity” value stood at 0.74. The compound further returned an IC50 in series [2] of 414.1 ± 0.52 µM.
`O=C(c1ccc(F)cc1)C1C(c2cc3ccccc3o2)C2C3CCCCC3CN2[C@@]12C(=O)Nc1ccccc12` (stereo partly drawn) [Compound 5m, (3S)-1′-(Benzofuran-2-yl)-2′-(4-fluorobenzoyl)-1′,2′,5′,5a′,6′,7′,8′,9′,9a′,9b′-decahydrospiro[indoline-3,3′-pyrrolo[2,1-a]isoindol]-2-one]: the melting point was in the range of 137 to 138 °C.
`O=C(c1ccc(Br)cc1)C1C(c2cc3ccccc3o2)C2C3CCCCC3CN2[C@@]12C(=O)Nc1ccccc12` (stereo partly drawn) [Compound 5n, (3S)-1′-(Benzofuran-2-yl)-2′-(4-bromobenzoyl)-1′,2′,5′,5a′,6′,7′,8′,9′,9a′,9b′-decahydrospiro[indoline-3,3′-pyrrolo[2,1-a]isoindol]-2-one]: the melting point lay within 118 to 120 °C.
The compound `O=C(c1ccc(Cl)cc1)C1C(c2cc3ccccc3o2)C2C3CCCCC3CN2[C@@]12C(=O)Nc1ccc(Cl)cc12` (stereo partly drawn) [Compound 5o, (3S)-1′-(Benzofuran-2-yl)-5-chloro-2′-(4-chlorobenzoyl)-1′,2′,5′,5a′,6′,7′,8′,9′,9a′,9b′-decahydrospiro-[indoline-3,3′-pyrrolo[2,1-a]isoindol]-2-one] yielded a melting point of 125 to 126 °C.
In the case of `O=C(c1ccc(Cl)cc1)C1C(c2cc3ccccc3o2)C2CSCN2[C@@]12C(=O)Nc1ccc(Cl)cc12` (stereo partly drawn) [Compound 5p, (3S)-7′-(Benzofuran-2-yl)-5-chloro-6′-(4-chlorobenzoyl)-1′,6′,7′,7a′-tetrahydro-3′H-spiro[indoline-3,5′-pyrrolo[1,2-c]thiazol]-2-one], the melting point lay within 105 to 106 °C. In addition, in series [1], half-maximal inhibition (IC50) required 488 ± 1.11 µM and the “α-Amylase Selectivity” value came out at 0.80. Further, in series [2], the IC50 came out at 392.1 ± 1.07 µM and the “α-Glucosidase Selectivity” value is 1.24.

The record behind these values is PMC6630796, “Spiroindolone Analogues as Potential Hypoglycemic with Dual Inhibitory Activity on α-Amylase and α-Glucosidase” (Molecules, 2019).
